From patent US4468511A, “C-20- And C-23-Modified macrolide derivatives” (Eli Lilly and Company, priority 1983, dated 1984)
≈ marks a conversion by molar mass, not a printed value. Read-outs that look alike come from different tables or passages of the source.

Key:
Escherichia coli EC14 = assay: MIC, standard agar-dilution assay; format: cell-based; details: Escherichia coli, EC14
Procedure: (§1) Certain of the derivatives are active against some gram-negative bacteria, such as Pasteurella species. The MIC's in Table II were determined by standard agar-dilution assays. The MIC's in Table III were obtained using a conventional broth-dilution microtiter test.

Escherichia coli TEM = assay: MIC, standard agar-dilution assay; format: cell-based; details: Escherichia coli
Procedure, shortened: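 Minimum inhibitory concentrations against Escherichia coli were measured with a standard agar-dilution method. The result for each derivative is the lowest concentration that inhibits bacterial growth, given in ug/mL.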

[1] = system: Klebsiella pneumoniae KAE; assay: MIC, standard agar-dilution assay; format: cell-based; details: agar-dilution; Klebsiella pneumoniae KAE; read-out: MIC
Procedure, shortened: (§2)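 MICs for the two Pasteurella strains and the Mycoplasma strain were read from a broth-dilution microtiter test. The Klebsiella strain was tested on agar instead.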

[2] = system: Klebsiella pneumoniae X26; assay: MIC, standard agar-dilution assay; format: cell-based; details: agar-dilution; Klebsiella pneumoniae X26; read-out: MIC
Procedure, shortened: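 The Klebsiella MIC was obtained by agar-dilution assay. Other organisms (Pasteurella hemolytica, Pasteurella multocida, Mycoplasma gallisepticum) were tested by conventional broth microdilution.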

[3] = system: Staphylococcus aureus V41; assay: MIC, standard agar-dilution assay; format: cell-based; details: Staphylococcus aureus, V41
Procedure: as §1

[4] = system: Staphylococcus aureus X1.1; assay: MIC, standard agar-dilution assay; format: cell-based; details: Staphylococcus aureus, X1.1
Procedure, shortened: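 Minimum inhibitory concentration against Staphylococcus aureus strain X1.1 was measured with a standard agar-dilution method. The result is reported as the MIC in ug/mL, i.e. the lowest compound concentration in agar that prevents visible growth of this organism.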

[5] = system: Streptococcus Group D X66; assay: MIC, standard agar-dilution assay; format: cell-based
Procedure: as §1

[6] = system: Streptococcus pneumoniae Park I; assay: MIC, standard agar-dilution assay; format: cell-based; details: agar-dilution; Streptococcus pneumoniae Park I; read-out: MIC
Procedure: as §1

[7] = system: Streptococcus pyogenes 9960; assay: MIC, standard agar-dilution assay; format: cell-based; details: agar-dilution, Streptococcus 9960, read-out: MIC
Procedure: as §1

[8] = system: Streptococcus pyogenes C203; assay: MIC, standard agar-dilution assay; format: cell-based; details: Streptococcus pyogenes, C203
Procedure: as §1

[9] = system: Haemophilus influenzae 76; assay: MIC, standard agar-dilution assay; format: cell-based; details: Haemophilus influenzae, 76
Procedure: (§3) The MIC's in Table II were determined by standard agar-dilution assays. The MIC's in Table III were obtained using a conventional broth-dilution microtiter test.

[10] = system: Haemophilus influenzae C.L.; assay: MIC, standard agar-dilution assay; format: cell-based; details: Haemophilus influenzae
Procedure: as §3

[11] = system: Staphylococcus aureus X400; assay: MIC, standard agar-dilution assay; format: cell-based; details: Staphylococcus aureus, X400
Procedure: as §3

[12] = system: Staphylococcus epidermidis EPI2; assay: MIC, standard agar-dilution assay; format: cell-based; details: agar-dilution; Staphylococcus epidermidis EPI2; read-out: MIC
Procedure: as §3

[13] = system: Staphylococcus aureus S13E; assay: microbe, parasite or virus in culture; format: cell-based
Procedure: as §3

[14] = system: Staphylococcus epidermidis EPI1; assay: microbe, parasite or virus in culture; format: cell-based; details: Staphylococcus epidermidis, EPI1
Procedure: as §3

[15] = system: Mycoplasma gallisepticum 34159; assay: MIC, conventional broth-dilution microtiter test; format: cell-based; details: Mycoplasmoides gallisepticum, 34159
Procedure, shortened: as §2

[16] = system: Mycoplasma gallisepticum 41313; assay: MIC, conventional broth-dilution microtiter test; format: cell-based; details: Mycoplasmoides gallisepticum, 41313
Procedure, shortened: as §2

Mycoplasma gallisepticum = assay: MIC, conventional broth-dilution microtiter test; format: cell-based; details: Mycoplasmoides gallisepticum
Procedure, shortened: as §2

Mycoplasma hyorhinis = assay: MIC, conventional broth-dilution microtiter test; format: cell-based; details: broth-dilution microtiter; Mycoplasma hyorhinis; read-out: MIC
Procedure, shortened: as §2

Mycoplasma synoviae = assay: MIC, conventional broth-dilution microtiter test; format: cell-based; details: Mycoplasmopsis synoviae; broth-dilution microtiter; Mycoplasma synoviae; read-out: MIC
Procedure, shortened: as §2

[17] = system: Pasteurella hemolytica 22C; assay: MIC, conventional broth-dilution microtiter test; format: cell-based; details: broth-dilution microtiter; Pasteurella hemolytica 22C; read-out: MIC
Procedure, shortened: as §2

[18] = system: Pasteurella hemolytica 23C; assay: MIC, conventional broth-dilution microtiter test; format: cell-based; details: broth-dilution microtiter; Pasteurella hemolytica 23C; read-out: MIC
Procedure, shortened: as §2

[19] = system: Pasteurella hemolytica 41D; assay: MIC, conventional broth-dilution microtiter test; format: cell-based; details: broth-dilution microtiter; Pasteurella hemolytica 41D; read-out: MIC
Procedure, shortened: as §2

[20] = system: Pasteurella multocida 17E; assay: MIC, conventional broth-dilution microtiter test; format: cell-based; details: broth-dilution microtiter; Pasteurella multocida 17E, Bovine isolate; read-out: MIC
Procedure, shortened: as §2

[21] = system: Pasteurella multocida 22A; assay: MIC, conventional broth-dilution microtiter test; format: cell-based; details: broth-dilution microtiter; Pasteurella multocida 22A; read-out: MIC
Procedure, shortened: as §2

[22] = system: Pasteurella multocida 40G; assay: MIC, conventional broth-dilution microtiter test; format: cell-based; details: broth-dilution microtiter; Pasteurella multocida 40G; read-out: MIC
Procedure, shortened: as §2

[23] = system: Pasteurella multocida 60A; assay: MIC, conventional broth-dilution microtiter test; format: cell-based; details: broth-dilution microtiter; Pasteurella multocida 60A, Avian isolate; read-out: MIC
Procedure, shortened: as §2

[24] = system: Pasteurella multocida 68C; assay: MIC, conventional broth-dilution microtiter test; format: cell-based; details: Pasteurella multocida, 68C
Procedure, shortened: as §2

Staphylococcus aureus = assay: MIC, conventional broth-dilution microtiter test; format: cell-based; details: broth-dilution microtiter, read-out: MIC
Procedure: as §1

Streptococcus sp. 80 = assay: MIC, conventional broth-dilution microtiter test; format: cell-based; details: Streptococcus, SP.80
Procedure: as §1

[25] = system: Streptococcus pyogenes C203; assay: Protection of mice experimentally infected with S. pyogenes C203; format: in vivo; details: mg/kg × 2, doses given 1 and 4 hours postinfection
Procedure: Some of the derivatives of this invention have shown in vivo antimicrobial activity against experimentally-induced infections in laboratory animals. When two doses of test compound were administered to mice experimentally infected with S. pyogenes C203, the activity observed was measured as an ED50 value [effective dose in mg/kg to protect 50% of the test animals: see Warren Wick, et al., J. Bacteriol. 81, 233-235 (1961)].

Pasteurella multocida = assay: Pasteurella infection in one-day old chicks; format: in vivo; details: subcutaneous, 30 mg/kg × 2, 1 and 4 hours post-challenge
Procedure: Certain of the formula 1 compounds of this invention have also shown in vivo activity against infections induced by gram-negative bacteria. Table V summarizes the results of tests in which illustrative compounds were evaluated against a Pasteurella infection in one-day old chicks. The compounds were administered parenterally after challenge of the chicks with Pasteurella multocida (0.1 ml of a 10^-4 dilution of a twenty-hour tryptose broth culture of an avian P. multocida given subcutaneously). In these tests, unless indicated otherwise, all non-medicated infected chicks died within 24 hours of Pasteurella challenge. In the tests summarized in Table V, the compounds were administered by subcutaneous injection at a dosage of 30 mg/kg, 1 and 4 hours post-challenge of the chicks with P. multocida.

CCC1OC(=O)CC(O)C(C)C(OC2OC(C)C(O)C(N(C)C)C2O)C(CCNCCc2ccccc2)CC(C)C(=O)C=CC(C)=CC1CO (stereo not shown) [Compound 5, 20-N-Phenethylamino-20-deoxy-20-dihydro-OMT]
MIC (Escherichia coli EC14): 64 µg/mL (≈ 91 µM) | MIC (Escherichia coli TEM): 8 µg/mL (≈ 11.4 µM) | MIC [1]: > 128 µg/mL | MIC [2]: 4 µg/mL (≈ 5.69 µM) | MIC [3]: 8 µg/mL (≈ 11.4 µM) | MIC [4]: 4 µg/mL (≈ 5.69 µM) | MIC [5]: 8 µg/mL (≈ 11.4 µM) | MIC [6]: 1 µg/mL (≈ 1.42 µM) | MIC [7]: 16 µg/mL (≈ 22.8 µM) | MIC [8]: 2 µg/mL (≈ 2.85 µM) | MIC [9]: 8 µg/mL (≈ 11.4 µM) | MIC [10]: 8 µg/mL (≈ 11.4 µM) | MIC [11]: 16 µg/mL (≈ 22.8 µM) | MIC [12]: 16 µg/mL (≈ 22.8 µM) | MIC [13]: 8 µg/mL (≈ 11.4 µM) | MIC [14]: 4 µg/mL (≈ 5.69 µM) | MIC [15]: 50 µg/mL (≈ 71.1 µM) | MIC [16]: 50 µg/mL (≈ 71.1 µM) | MIC (Mycoplasma gallisepticum): 1.56 µg/mL (≈ 2.22 µM) | MIC (Mycoplasma hyorhinis): > 50 µg/mL | MIC (Mycoplasma synoviae): 3.12 µg/mL (≈ 4.44 µM) | MIC [17]: 6.25 µg/mL (≈ 8.89 µM) | MIC [18]: 3.12 µg/mL (≈ 4.44 µM) | MIC [19]: 3.12 µg/mL (≈ 4.44 µM) | MIC [20]: 3.12 µg/mL (≈ 4.44 µM) | MIC [21]: 6.25 µg/mL (≈ 8.89 µM) | MIC [22]: 6.25 µg/mL (≈ 8.89 µM) | MIC [23]: 3.12 µg/mL (≈ 4.44 µM) | MIC [24]: 1.56 µg/mL (≈ 2.22 µM) | MIC (Staphylococcus aureus): 6.25 µg/mL (≈ 8.89 µM) | MIC (Streptococcus sp. 80): 1.56 µg/mL (≈ 2.22 µM) | ED50 ([25]; C203, mice, oral, read-out: ED50 Oral): > 100 mg/kg | ED50 ([25]; C203, sc, mice, subcutaneous, read-out: ED50 Subcutaneous): 7.2 mg/kg | Number of Deaths/Number Treated (Pasteurella multocida): 1/10
